Test results reported in patent US20150057443A1, “Cycloalkyl Amine Compounds” (Prexa Pharmaceuticals, Inc., priority 2013, published 2015).
Where two headings read alike, the source gives them in different places.

How the values were obtained:
human recombinant NET = target: T1, human recombinant NET (Homo sapiens, UniProt P23975); assay: NET radioligand binding assay (scintillation proximity, [3H]nisoxetine); details: HEK293 cell membranes expressing human recombinant NET; [3H]nisoxetine; SPA; read-out: NET Ki
T1 construct: membranes)
T1 sequence (P23975 whole entry): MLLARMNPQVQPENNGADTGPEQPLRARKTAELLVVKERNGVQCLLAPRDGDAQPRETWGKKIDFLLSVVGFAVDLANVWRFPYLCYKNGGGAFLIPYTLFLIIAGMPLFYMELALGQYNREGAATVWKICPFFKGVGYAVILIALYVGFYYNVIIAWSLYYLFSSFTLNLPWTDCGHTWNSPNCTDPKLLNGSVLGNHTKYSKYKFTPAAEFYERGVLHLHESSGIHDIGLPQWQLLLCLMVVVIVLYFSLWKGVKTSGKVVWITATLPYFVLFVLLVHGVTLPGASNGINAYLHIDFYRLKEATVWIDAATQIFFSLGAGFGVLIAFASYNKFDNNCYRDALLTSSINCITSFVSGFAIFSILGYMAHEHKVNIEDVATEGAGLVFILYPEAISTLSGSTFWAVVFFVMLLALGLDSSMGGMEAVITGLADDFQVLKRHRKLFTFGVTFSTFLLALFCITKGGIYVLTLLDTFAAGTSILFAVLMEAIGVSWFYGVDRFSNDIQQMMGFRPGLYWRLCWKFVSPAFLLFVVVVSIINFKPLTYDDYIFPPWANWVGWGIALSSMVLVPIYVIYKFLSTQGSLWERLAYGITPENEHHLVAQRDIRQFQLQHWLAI
Procedure: (§1) Affinity of the compounds for monoamine transporters was determined by in vitro radioligand binding assays using cell membrane preparations derived from HEK293 cell lines stably expressing human recombinant DAT, NET or SERT receptor (Suven Life Sciences, Hyderabad, India).
(§2) Stable DAT cell lines were generated following procedures described in Eshelman et al., Molecular Pharmacology 45, 312-316; 1994. Stable NET cell lines were generated following procedures described in Pacholczyk et al., Nature 350, 350-354, 1991 and Galli et al., Journal Exp. Biol. 198, 2197-2212, 1995. Stable SERT cell lines were generated following procedures described in Ramamoorthy et al., Proc Natl Acad Sci USA 90, 2542-246, 1993.
(§3) Cell membranes were obtained from the above-referenced cell lines by manually homogenizing previously frozen cell pellets in Tris-HCl buffer and serially centrifugating and re-extracting the preparations according procedures described in Subbu et al., Journal Pharmacol ExpTher 327, 982-990, 2008.
(§4) A scintillation proximity assay was used to measure receptor binding. Homogenized membrane preparations (final protein concentration 8-15 ug/well) were pre-incubated with WGA PVT SPA beads (0.5 mg/well) for 5 minutes. Binding was initiated by adding high affinity ligands and test compounds (0.1 nM to 10 μM) or reference/positive control ligands to the membrane-bead complex. Plates were incubated for three hours and raw data counts recorded using a liquid scintillation counter (MicroBetaTriLux Counter, Perkin Elmer). Inhibition constants (Ki) were calculated using GraphPad Prism software (version 4.0).
NET receptor binding was determined using procedures described in Mason et al., The Journal of Pharmacology and Experimental Therapeutics 323:720-729, 2007; and Eshleman et al., The Journal of Pharmacology and Experimental Therapeutics289:877-885, 1999. A mixture of [3H]nisoxetine hydrochloride (N-methyl-[3H]nisoxetine, Perkin Elmer) and bead-membrane complex was added to wells containing test compound. Wells containing unlabeled nisoxetine (100 uM, Sigma) were used to define non-specific NET binding. Total radioligand was defined using assay buffer containing 1% DMSO in the presence of [3H]nisoxetine. NET Ki values were calculated using GraphPad Prism software (version 4.0).

human recombinant DAT = human recombinant DAT (Homo sapiens, UniProt Q01959); assay: DAT radioligand binding assay (scintillation proximity, [3H]WIN-35428)
Chain of human recombinant DAT (Q01959 whole entry): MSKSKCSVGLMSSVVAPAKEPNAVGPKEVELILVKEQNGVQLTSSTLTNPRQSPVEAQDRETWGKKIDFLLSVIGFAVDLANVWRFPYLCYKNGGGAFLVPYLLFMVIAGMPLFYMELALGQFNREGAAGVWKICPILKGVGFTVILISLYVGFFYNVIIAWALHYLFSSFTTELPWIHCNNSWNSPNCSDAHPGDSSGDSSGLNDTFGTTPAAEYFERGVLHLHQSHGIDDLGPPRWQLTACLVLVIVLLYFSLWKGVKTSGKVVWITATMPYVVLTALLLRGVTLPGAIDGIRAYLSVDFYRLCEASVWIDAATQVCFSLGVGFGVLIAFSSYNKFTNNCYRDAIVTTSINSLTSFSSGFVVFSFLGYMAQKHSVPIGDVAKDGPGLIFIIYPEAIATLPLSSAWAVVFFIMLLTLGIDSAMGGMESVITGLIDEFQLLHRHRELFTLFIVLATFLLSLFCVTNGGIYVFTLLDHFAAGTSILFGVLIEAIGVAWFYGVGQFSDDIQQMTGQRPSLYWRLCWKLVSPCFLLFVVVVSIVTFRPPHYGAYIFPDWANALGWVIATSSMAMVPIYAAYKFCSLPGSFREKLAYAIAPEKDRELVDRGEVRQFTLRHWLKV
Procedure: as §1, §2, §3, §4
DAT receptor binding was determined using procedures described in Skolnick et al., European Journal of Pharmacology, 461(2-3):99-104, 2003; and Eshleman et al., The Journal of Pharmacology and Experimental Therapeutics 289:877-885, 1999. A mixture of [3H]WIN-35428 (N-methyl 3H-WIN-35428, Perkin Elmer) and bead-membrane complex was added to wells containing test compound. Wells containing nomifensine maleate ([…], Sigma) were used to define non-specific […] binding. Total radioligand was defined by assay buffer containing 1% DMSO in the presence of [3H]WIN-35428. DAT Ki values were calculated using GraphPad Prism software (version 4.0).

human recombinant SERT = target: T2, human recombinant SERT (Homo sapiens, UniProt P31645); assay: SERT radioligand binding assay (scintillation proximity, [3H]citalopram); details: HEK293 cell membranes expressing human recombinant SERT; [3H]citalopram; SPA; read-out: SERT Ki
T2 construct: membranes)
T2 sequence (P31645 whole entry): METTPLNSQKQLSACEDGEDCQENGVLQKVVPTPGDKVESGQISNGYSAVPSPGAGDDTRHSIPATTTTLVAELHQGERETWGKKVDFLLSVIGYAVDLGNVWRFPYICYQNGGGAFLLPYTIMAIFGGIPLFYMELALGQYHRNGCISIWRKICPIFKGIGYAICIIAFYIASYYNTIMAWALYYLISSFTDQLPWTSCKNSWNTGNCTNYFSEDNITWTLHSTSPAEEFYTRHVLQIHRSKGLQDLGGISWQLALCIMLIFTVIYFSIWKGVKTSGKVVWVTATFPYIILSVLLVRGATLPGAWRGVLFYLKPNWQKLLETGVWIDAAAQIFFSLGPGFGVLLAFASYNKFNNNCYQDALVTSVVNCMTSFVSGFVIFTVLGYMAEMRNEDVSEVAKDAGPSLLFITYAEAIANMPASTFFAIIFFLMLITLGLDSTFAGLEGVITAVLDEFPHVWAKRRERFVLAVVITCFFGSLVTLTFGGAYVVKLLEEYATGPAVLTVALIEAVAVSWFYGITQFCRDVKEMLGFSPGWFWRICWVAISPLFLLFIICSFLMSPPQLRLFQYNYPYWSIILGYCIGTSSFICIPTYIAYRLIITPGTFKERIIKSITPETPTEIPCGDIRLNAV
Procedure: as §1, §2, §3, §4
SERT receptor binding was determined using procedures described in Owens et al., The Journal of Pharmacology and Experimental Therapeutics 283:1305-1322, 1997. A mixture of [3H]citalopram (N-methyl-[3H]citalopram, Perkin Elmer) and bead-membrane complex was added to wells containing test compound. Non-specific binding was determined using wells containing venlafaxine hydrochloride (100 uM, Sigma). Total radioligand was determined using assay buffer containing 1% DMSO in the presence of [3H]citalopram. SERT Ki values were calculated using GraphPad Prism software (version 4.0).

Row | Compound | Ki (human recombinant NET) [nM] | Ki (human recombinant DAT; HEK293 cell membranes expressing human recombinant DAT, [3H]WIN-35428, SPA, read-out: DAT Ki) [nM] | Ki (human recombinant SERT) [nM] | Ki (human recombinant DAT) [nM]
1 | 1-{2-[1-(3-Chlorophenyl)cyclobutyl]-2-hydroxyethyl}-3,3-dimethylpiperidin-1-ium chloride [Compound 11] | > 500 | > 500 | > 500 | –
2 | Clc1ccc(C2(CN3CCCCC3)CCC2)cc1 [Compound 1] | > 500 | – | > 500 | 101 to 500
3 | Clc1cccc(C2(CN3CCCCC3)CCC2)c1 [Compound 2] | > 500 | – | > 500 | > 500
4 | Clc1ccc(C2(CN3CCCCC3)CCC2)cc1Cl [Compound 3] | 11 to 100 | – | 101 to 500 | 11 to 100
5 | c1ccc(C2(CN3CCCCC3)CCC2)cc1 [Compound 4, 1-[(1-phenylcyclobutyl)methyl]piperidin-1-ium chloride] | > 500 | – | > 500 | > 500
6 | OC(CN1CCCCC1)C1(c2ccccc2)CCC1 (stereo not drawn) [Compound 5, 1-[2-hydroxy-2-(1-phenylcyclobutyl)ethyl]piperidin-1-ium chloride] | > 500 | – | > 500 | > 500
7 | OC(CN1CCCCC1)C1(c2ccc(Cl)cc2)CCC1 (stereo not drawn) [Compound 6, 1-{2-[1-(4-Chlorophenyl)cyclobutyl]-2-hydroxyethyl}piperidin-1-ium chloride] | > 500 | – | > 500 | > 500
8 | OC(CN1CCCCC1)C1(c2ccc(Cl)c(Cl)c2)CCC1 (stereo not drawn) [Compound 7, 1-{2-[1-(3,4-Dichlorophenyl)cyclobutyl]-2-hydroxyethyl}piperidin-1-ium chloride] | 101 to 500 | – | > 500 | 11 to 100
9 | OC(CN1CCCCC1)C1(c2cccc(Cl)c2)CCC1 (stereo not drawn) [Compound 12, 1-{2-[1-(3-Chlorophenyl)cyclobutyl]-2-hydroxyethyl}piperidin-1-ium chloride] | > 500 | – | > 500 | > 500
10 | O[C@H](CN1CCCCC1)C1(c2ccc(Cl)c(Cl)c2)CCC1 [Compound 13, 1-[(2S)-2-[1-(3,4-dichlorophenyl)cyclobutyl]-2-hydroxyethyl]piperidin-1-ium chloride] | 11 to 100 | – | > 500 | 11 to 100
11 | O[C@@H](CN1CCCCC1)C1(c2ccc(Cl)c(Cl)c2)CCC1 [Compound 14, 1-[(2R)-2-[1-(3,4-dichlorophenyl)cyclobutyl]-2-hydroxyethyl]piperidin-1-ium chloride] | 101 to 500 | – | > 500 | 11 to 100
12 | OC(CN1CCCCC1)C1(c2ccc3ccccc3c2)CCC1 (stereo not drawn) [Compound 15, 1-{2-hydroxy-2-[1-(naphthalen-2-yl)cyclobutyl]ethyl}piperidin-1-ium chloride] | 11 to 100 | – | 101 to 500 | 11 to 100
13 | OC(CN1CCCCCC1)C1(c2ccc(Cl)c(Cl)c2)CCC1 (stereo not drawn) [Compound 16, 1-{2-[1-(3,4-Dichlorophenyl)cyclobutyl]-2-hydroxyethyl}azepan-1-ium chloride] | 101 to 500 | – | > 500 | 11 to 100
14 | OC(CN1CCCC1)C1(c2ccc(Cl)c(Cl)c2)CCC1 (stereo not drawn) [Compound 17, 1-{2-[1-(3,4-Dichlorophenyl)cyclobutyl]-2-hydroxyethyl}pyrrolidin-1-ium chloride] | 101 to 500 | – | > 500 | 11 to 100
15 | CCN(CC)CC(O)C1(c2ccc(Cl)c(Cl)c2)CCC1 (stereo not drawn) [Compound 18, {2-[1-(3,4-Dichlorophenyl)cyclobutyl]-2-hydroxyethyl}diethylazanium chloride] | 11 to 100 | – | > 500 | 11 to 100
16 | CC(C)NCC(O)C1(c2ccc(Cl)c(Cl)c2)CCC1 (stereo not drawn) [Compound 19, {2-[1-(3,4-dichlorophenyl)cyclobutyl]-2-hydroxyethyl}(propan-2-yl)azanium chloride] | 11 to 100 | – | 101 to 500 | 11 to 100
17 | CC(C)(C)NCC(O)C1(c2ccc(Cl)c(Cl)c2)CCC1 (stereo not drawn) [Compound 20, tert-butyl({2-[1-(3,4-dichlorophenyl)cyclobutyl]-2-hydroxyethyl})azanium chloride] | 11 to 100 | – | 101 to 500 | 11 to 100
18 | OC(CN1CCCC(F)C1)C1(c2ccc(Cl)c(Cl)c2)CCC1 (stereo not drawn) [Compound 21, 1-{2-[1-(3,4-Dichlorophenyl)cyclobutyl]-2-hydroxyethyl}-3-fluoropiperidin-1-ium chloride] | 11 to 100 | – | > 500 | < 10
19 | OC(CN1CCCC(F)(F)C1)C1(c2ccc(Cl)c(Cl)c2)CCC1 (stereo not drawn) [Compound 22, 1-{2-[1-(3,4-Dichlorophenyl)cyclobutyl]-2-hydroxyethyl}-3,3-difluoropiperidin-1-ium chloride] | 101 to 500 | – | > 500 | < 10
20 | OC(CN1CCC(F)CC1)C1(c2ccc(Cl)c(Cl)c2)CCC1 (stereo not drawn) [Compound 23, 1-{2-[1-(3,4-Dichlorophenyl)cyclobutyl]-2-hydroxyethyl}-4-fluoropiperidin-1-ium chloride] | 101 to 500 | – | > 500 | < 10
21 | OC(CN1CCC(F)(F)CC1)C1(c2ccc(Cl)c(Cl)c2)CCC1 (stereo not drawn) [Compound 24, 1-{2-[1-(3,4-Dichlorophenyl)cyclobutyl]-2-hydroxyethyl}-4,4-difluoropiperidin-1-ium chloride] | > 500 | – | 101 to 500 | < 10
22 | OC(CN1CC2CCC1C2)C1(c2ccc(Cl)c(Cl)c2)CCC1 (stereo not drawn) [Compound 25, 2-{2-[1-(3,4-Dichlorophenyl)cyclobutyl]-2-hydroxyethyl}-2-azabicyclo[2.2.1]heptan-2-ium chloride] | 11 to 100 | – | 101 to 500 | 11 to 100
23 | OC(CN1CC2CC1CO2)C1(c2ccc(Cl)c(Cl)c2)CCC1 (stereo not drawn) [Compound 27, 5-{2-[1-(3,4-Dichlorophenyl)cyclobutyl]-2-hydroxyethyl}-2-oxa-5-azabicyclo[2.2.1]heptan-5-ium chloride] | 101 to 500 | – | > 500 | 11 to 100
24 | CC(CF)NCC(O)C1(c2ccc(Cl)c(Cl)c2)CCC1 (stereo not drawn) [Compound 29, {2-[1-(3,4-dichlorophenyl)cyclobutyl]-2-hydroxyethyl}(1-fluoropropan-2-yl)azanium chloride] | 101 to 500 | – | > 500 | 11 to 100
25 | OC(CN1CCOCC1)C1(c2ccc(Cl)c(Cl)c2)CCC1 (stereo not drawn) [Compound 30, 4-{2-[1-(3,4-Dichlorophenyl)cyclobutyl]-2-hydroxyethyl}morpholin-4-ium chloride] | > 500 | – | > 500 | 11 to 100
26 | CC1(C)COCCN1CC(O)C1(c2ccc(Cl)c(Cl)c2)CCC1 (stereo not drawn) [Compound 31, 4-{2-[1-(3,4-dichlorophenyl)cyclobutyl]-2-hydroxyethyl}-3,3-dimethylmorpholin-4-ium chloride] | 11 to 100 | – | 11 to 100 | < 10
27 | N#CC1CCCN(CC(O)C2(c3ccc(Cl)c(Cl)c3)CCC2)C1 (stereo not drawn) [Compound 32, 1-{2-[1-(3,4-dichlorophenyl)cyclobutyl]-2-hydroxyethyl}piperidine-3-carbonitrile] | 101 to 500 | – | 11 to 100 | < 10
28 | COC1CCCN(CC(O)C2(c3ccc(Cl)c(Cl)c3)CCC2)C1 (stereo not drawn) [Compound 33, 1-{2-[1-(3,4-Dichlorophenyl)cyclobutyl]-2-hydroxyethyl}-3-methoxypiperidin-1-ium chloride] | 101 to 500 | – | > 500 | < 10
29 | CC1(NCC(O)C2(c3ccc(Cl)c(Cl)c3)CCC2)CC1 (stereo not drawn) [Compound 34, N-{2-[1-(3,4-Dichlorophenyl)cyclobutyl]-2-hydroxyethyl}-1-methylcyclopropan-1-aminium chloride] | 11 to 100 | – | 101 to 500 | 11 to 100
